Assay results taken from patent US7368100B2, “Backbone-substituted bifunctional DOTA ligands, complexes and compositions thereof, and methods of using same” (The United States of America, represented by the Secretary, …, priority 2002, dated 2008).

Legend:
[1] = tested on: HER2 positive cells (N87); assay: Live-cell radioimmunoassay (immunoreactivity) of radiolabeled HERCEPTIN preparations; assay type: binding, human; conditions: for HER2 + (percent binding): N87 cells, overnight 4° C., average of the serial dilutions; for HER2 − (percent binding): column HER2 −, not explained, text describes incubation with excess (10 μg) unlabeled HERCEPTIN
Procedure: The human colon carcinoma (LS-174T) cell line was grown in supplemented Eagle's minimum essential medium as previously described (see Brechbiel et al., Inorg Chem., 25, 2772 (1986); and Lagunas-Solar et al., Appl. Radiat. Isot., 38, 129-137 (1987)). The human gastric carcinoma cell line (N87) was kindly provided by Dr. Raya Mandler, Metabolism Branch, NCI. The N87 cell line (Jurcic et al., Advances in Pharmacology, Vol. 33, (J. T. August, M. W. Anders, F. Murad, J. T. Coyle Eds.) pp 287-314, Academic Press, Inc., New York, (1995)), which expresses high levels of HER2, was maintained in RPMI 1640 (Quality Biologicals, Gaithersburg, Md.) medium, supplemented with 10% fetal bovine serum (FBS) (Gemini Bio-Products, Woodland, Calif.) and 0.01 mM non-essential amino acids (Quality Biologicals, Gaithersburg, Md.).
The immunoreactivity of the RIC was assessed in a live-cell radioimmunoassay (RIA) as detailed elsewhere (Garmestani et al., Nuci. Med. Biol., 29, 599-606 (2002)). HER2 positive cells (N87) were harvested, pelleted at 1,000×g (Allegra 6KR; Beckman Coulter, Palo Alto, Calif.) and resuspended in PBS (pH 7.2) containing 1% BSA and were added to 12×75 […] polypropylene tubes (1×10^6 cells in 100 μL). Serial dilutions of the radiolabeled HERCEPTIN preparations (about 200,000 cpm -12,500 cpm in 50 μL) were then added in duplicate and gently shaken. Following an overnight incubation at 4° C., the cells were washed once with 4 mL of 1% BSA in PBS and pelleted at 1,000×g for 5 min, and the supernatant was decanted. The pelleted cells were then counted in a γ-scintillation counter (Packard), and the percent binding was calculated for each dilution. The values presented in Table 1 are an average of the serial dilutions. To confirm the specific reactivity of the RIC, cells were incubated with about 200,000 cpm of the RIC along with an excess (10 μg) of unlabeled HERCEPTIN.

[2] = tested on: human colon carcinoma (LS-174T) xenografts; conditions: mouse, in vivo
Procedure: The radioimmunoconjugates (RICs) were compared in vivo using athymic mice bearing human colon adenocarcinoma xenografts. Female athymic mice (nu/nu), obtained from Charles River Laboratories (Wilmington, Mass.) at 4-6 weeks of age, were injected subcutaneously on the flank with 2×10^6 LS-174T cells in 0.2 mL of RPMI-1640. At approximately 10-14 days, when the tumors measured between 0.4-0.6 cm in diameter, the mice received the ^177Lu-labeled HERCEPTIN. The mice were injected with each RIC (about 5 μCi of each) intravenously (i.v.) via the tail vein. Mice (n=5) were sacrificed by exsanguination at 24, 48, 72, 96 and 168 h.
Blood, tumor and the major organs were collected and wet-weighed, and the radioactivity was counted in a γ-counter (Minaxi-γ, Packard, Downers Grove, Ill.). The percent injected dose per gram (% ID/g) was determined for each tissue as well as the radiolocalization indices (% ID/g in tumor divided by the % ID/g in the normal tissue). The mean and average deviation for each tissue was also calculated.
Following injection of the radioimmunoconjugates (n=5), blood samples were collected at various time points via the tail vein in heparinized capillary tubes (10 μL). The blood was transferred to a tube, and the radioactivity was measured in a γ-counter. The percent injected dose per mL of blood was calculated for each of the samples.
If the radioactivity in the tissues is due to specific accumulation, then the tissue-to-blood ratio would increase as a function of time. If the radioactivity in the tissues is a result of that radioactivity present in the plasma compartment, then the tissue-to-blood ratio would remain constant with time.

leukemia cell line = conditions: directed against a leukemia cell line; Nikula et al. 1999; cited from earlier work

| Substance | HER2 + (percent binding) [1] [%] | HER2 − (percent binding) [1] [%] | femur-to-blood ratios, course over time [2] | spleen-to-blood ratios [2] | cell killing ability (leukemia cell line) | liver % ID/g, comparison among RIC [2] |
| --- | --- | --- | --- | --- | --- | --- |
| CHX-DOTA (14) | 45.8 | 4.3 | higher overall than the other RIC | less than 1 | – | – |
| Bismuth-labeled HuM195 | – | – | – | – | specific and potent cell killing ability | – |
| 1B4M-DOTA (7) | 47.2 | 6.7 | – | less than 1 | – | lowest liver % ID/g values throughout the entire study period |
